In patent US20230265151A1, “GIP/GLP1 CO-AGONIST COMPOUNDS” (priority 2020, published 2023):
Like-named read-outs stand apart in the source and are kept apart here. *1 amine or outer side, *2 acyl side, *3 side chain or, on linkers, in order; H or OH if unused. Where a SMILES comes first, the peptide text is derived from it. Side-chain parts run from the residue outwards. [ ]: non-standard residue; d: D form. The star is where a group is joined. αMePhe(2-F) = C[C@](N)(Cc1ccccc1F)C(=O)O; γGlu = O=C(O)[C@H](CCC(=O)[*:2])N[*:1]; C14 diacid = O=C(O)CCCCCCCCCCCCC(=O)*; αMeY = C[C@](N)(Cc1ccc(O)cc1)C(=O)O; 4Pal = N[C@@H](Cc1ccncc1)C(=O)O; αMeL = CC(C)C[C@](C)(N)C(=O)O; Orn = NCCC[C@H](N)C(=O)O; AEEA = NCCOCCOCC(=O)O; Aib = CC(C)(N)C(=O)O

What was measured:
Assay type in all cases: cell-based
hGIPR = target: T1, hGIPR (Homo sapiens, UniProt P48546); assay: Functional cAMP formation (HTRF) in HEK-293 clonal cells expressing hGIPR, 0.1% bovine casein, without or with 1.0% human serum albumin; details: for Emax: read-out: hGIPR Emax, % ± SEM; for EC50: geometric mean, read-out: hGIPR EC50, nM (SEM, n)
T1 construct: expressed in transfected cells
T1 sequence (P48546 22-466): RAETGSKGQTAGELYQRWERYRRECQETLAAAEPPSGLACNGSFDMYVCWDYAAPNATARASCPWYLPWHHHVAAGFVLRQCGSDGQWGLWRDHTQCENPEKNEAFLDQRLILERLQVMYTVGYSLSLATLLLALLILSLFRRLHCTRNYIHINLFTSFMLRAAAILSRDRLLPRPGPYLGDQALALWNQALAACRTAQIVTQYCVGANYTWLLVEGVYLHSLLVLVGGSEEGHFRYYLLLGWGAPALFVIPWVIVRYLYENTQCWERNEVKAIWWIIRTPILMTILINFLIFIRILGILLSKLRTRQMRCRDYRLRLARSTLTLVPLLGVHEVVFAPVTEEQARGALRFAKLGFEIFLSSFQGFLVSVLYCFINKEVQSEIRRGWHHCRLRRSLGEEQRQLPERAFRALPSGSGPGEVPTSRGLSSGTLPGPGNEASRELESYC
Procedure, shortened: (§1)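 Cells were stimulated with peptide for 30 min at 37° C, then intracellular cAMP was measured by competitive HTRF (665/620 nm ratio) and converted to nM using a cAMP standard curve. Relative EC50 and Emax came from four-parameter logistic fits of percent maximal response against peptide concentration.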

hGCGR = target: T2, hGCGR (Homo sapiens, UniProt P47871); assay: Functional cAMP formation (HTRF) in HEK-293 clonal cells expressing hGCGR, 0.1% bovine casein, without or with 1.0% human serum albumin; details: geometric mean, read-out: hGCGR EC50, nM (SEM, n)
T2 construct: expressed in transfected cells
T2 sequence (P47871 26-477): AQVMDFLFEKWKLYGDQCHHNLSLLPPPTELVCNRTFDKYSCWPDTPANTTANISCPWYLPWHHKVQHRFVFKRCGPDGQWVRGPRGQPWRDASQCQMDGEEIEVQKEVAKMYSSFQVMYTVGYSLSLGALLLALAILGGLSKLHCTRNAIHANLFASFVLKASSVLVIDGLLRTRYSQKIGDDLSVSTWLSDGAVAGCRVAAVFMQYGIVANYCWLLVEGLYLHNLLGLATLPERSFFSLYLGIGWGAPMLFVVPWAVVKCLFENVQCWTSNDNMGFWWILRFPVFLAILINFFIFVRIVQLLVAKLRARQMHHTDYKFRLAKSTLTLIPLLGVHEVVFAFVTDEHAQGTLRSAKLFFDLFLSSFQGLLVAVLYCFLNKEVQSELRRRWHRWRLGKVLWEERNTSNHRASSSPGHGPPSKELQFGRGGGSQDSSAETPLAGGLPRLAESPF
Procedure, shortened: as §1

hGLP-1R = hGLP-1R (Homo sapiens, UniProt P43220); assay: Functional cAMP formation (HTRF) in HEK-293 clonal cells expressing hGLP-1R, 0.1% bovine casein, without or with 1.0% human serum albumin; parameters: expressed in transfected cells; details: for EC50: geometric mean, read-out: hGLP-1R EC50, nM (SEM, n); for Emax: read-out: hGLP-1R Emax, % ± SEM
Chain of hGLP-1R (P43220 24-463): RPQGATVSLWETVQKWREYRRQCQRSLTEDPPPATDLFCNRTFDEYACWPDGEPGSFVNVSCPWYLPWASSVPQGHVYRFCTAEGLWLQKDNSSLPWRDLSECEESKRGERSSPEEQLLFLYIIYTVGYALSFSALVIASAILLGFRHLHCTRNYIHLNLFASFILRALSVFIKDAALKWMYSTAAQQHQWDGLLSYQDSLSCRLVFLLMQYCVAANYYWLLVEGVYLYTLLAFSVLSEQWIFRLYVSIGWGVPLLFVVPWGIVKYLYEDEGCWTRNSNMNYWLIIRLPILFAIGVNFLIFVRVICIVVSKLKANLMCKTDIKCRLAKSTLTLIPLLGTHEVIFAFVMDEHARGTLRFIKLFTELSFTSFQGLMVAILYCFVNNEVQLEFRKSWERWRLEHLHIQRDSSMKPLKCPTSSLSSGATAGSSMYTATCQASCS
Procedure, shortened: as §1

[1] = cAMP, incubated at 37° C., 0.1% bovine casein (no human serum albumin)
[2] = 0.1% bovine casein and 1.0% human serum albumin, 37° C.
[3] = HEK293, 0.1% bovine casein and 1.0% human serum albumin, 37° C., percent of maximal response to GIP(1-42)NH2

CCCCCCCCCCCC(=O)N[C@@H](CCC(=O)NCCOCCOCC(=O)NCCOCCOCC(=O)NCCCC[C@H](NC(=O)[C@H](CCCN)NC(=O)[C@H](CC(=O)O)NC(=O)[C@H](CC(C)C)NC(=O)[C@](C)(CC(C)C)NC(=O)[C@@H](NC(=O)[C@H](CO)NC(=O)[C@H](Cc1ccncc1)NC(=O)[C@H](CC(=O)O)NC(=O)[C@H](CO)NC(=O)[C@@H](NC(=O)[C@](C)(Cc1ccccc1F)NC(=O)[C@@H](NC(=O)CNC(=O)[C@H](CCC(=O)O)NC(=O)C(C)(C)NC(=O)[C@@H](N)Cc1ccc(O)cc1)[C@@H](C)O)[C@@H](C)O)[C@@H](C)CC)C(=O)N[C@@H](C)C(=O)N[C@@H](CCC(N)=O)C(=O)NC(C)(C)C(=O)N[C@@H](CCC(=O)O)C(=O)N[C@@H](Cc1ccccc1)C(=O)N[C@H](C(=O)N[C@H](CCC(=O)O)C(=O)N[C@@](C)(Cc1ccc(O)cc1)C(=O)N[C@@H](CC(C)C)C(=O)N[C@H](C(=O)N[C@@H](CCC(=O)O)C(=O)NCC(=O)N[C@@H](CCCCNC(=O)COCCOCCNC(=O)COCCOCCNC(=O)CC[C@H](NC(=O)CCCCCCCCCCC)C(=O)O)C(=O)N1CCC[C@H]1C(=O)N[C@@H](CO)C(=O)N[C@@H](CO)C(=O)NCC(=O)N[C@@H](C)C(=O)N1CCC[C@H]1C(=O)N1CCC[C@H]1C(=O)N1CCC[C@H]1C(=O)N[C@@H](CO)C(N)=O)[C@@H](C)CC)[C@@H](C)CC)C(=O)O [Example 140]
Emax (hGIPR; HEK293, percent of maximal response to GIP(1-42)NH2, 37° C., 0.1% bovine casein, arithmetic mean): 98.5 ± 1.71% | EC50 (hGIPR; [1]): 0.0121 nM | EC50 (hGCGR; [1]): > 9950 nM | EC50 (hGLP-1R; [1]): 0.131 nM

CC[C@H](C)[C@H](NC(=O)[C@H](CC(C)C)NC(=O)[C@](C)(Cc1ccc(O)cc1)NC(=O)[C@@H](CCC(=O)O)NC(=O)[C@@H](NC(=O)[C@H](Cc1ccccc1)NC(=O)[C@H](CCCCNC(=O)COCCOCCNC(=O)COCCOCCNC(=O)CCCCCCCCCCCCC(=O)O)NC(=O)C(C)(C)NC(=O)[C@H](CCC(N)=O)NC(=O)[C@H](C)NC(=O)[C@H](CCCCNC(=O)COCCOCCNC(=O)COCCOCCNC(=O)CCCCCCCCCCCCC(=O)O)NC(=O)[C@H](CCCN)NC(=O)[C@H](CC(=O)O)NC(=O)[C@H](CC(C)C)NC(=O)[C@](C)(CC(C)C)NC(=O)[C@@H](NC(=O)[C@H](CO)NC(=O)[C@H](Cc1ccncc1)NC(=O)[C@H](CC(=O)O)NC(=O)[C@H](CO)NC(=O)[C@@H](NC(=O)[C@](C)(Cc1ccccc1F)NC(=O)[C@@H](NC(=O)CNC(=O)[C@H](CCC(=O)O)NC(=O)C(C)(C)NC(=O)[C@@H](N)Cc1ccc(O)cc1)[C@@H](C)O)[C@@H](C)O)[C@@H](C)CC)[C@@H](C)CC)C(=O)N[C@@H](CCC(=O)O)C(=O)NCC(=O)NCC(=O)N1CCC[C@H]1C(=O)N[C@@H](CO)C(=O)N[C@@H](CO)C(=O)NCC(=O)N[C@@H](C)C(=O)N1CCC[C@H]1C(=O)N1CCC[C@H]1C(=O)N1CCC[C@H]1C(=O)N[C@@H](CO)C(N)=O [Example 78]
EC50 (hGIPR; [2]): 0.242 nM | Emax (hGIPR; [3]): 89.7 ± 2.65% | EC50 (hGIPR; [1]): 0.0145 nM | EC50 (hGCGR; [2]): > 9950 nM | EC50 (hGCGR; [1]): > 9950 nM | EC50 (hGLP-1R; [2]): 4.29 nM | EC50 (hGLP-1R; [1]): 0.286 nM

CC[C@H](C)[C@H](NC(=O)[C@H](CCCN)NC(=O)[C@H](CC(=O)O)NC(=O)[C@H](CC(C)C)NC(=O)[C@](C)(CC(C)C)NC(=O)[C@@H](NC(=O)[C@H](CO)NC(=O)[C@H](Cc1ccncc1)NC(=O)[C@H](CC(=O)O)NC(=O)[C@H](CO)NC(=O)[C@@H](NC(=O)[C@](C)(Cc1ccccc1F)NC(=O)[C@@H](NC(=O)CNC(=O)[C@H](CCC(=O)O)NC(=O)C(C)(C)NC(=O)[C@@H](N)Cc1ccc(O)cc1)[C@@H](C)O)[C@@H](C)O)[C@@H](C)CC)C(=O)N[C@@H](C)C(=O)N[C@@H](CCC(N)=O)C(=O)NC(C)(C)C(=O)N[C@@H](CCC(=O)O)C(=O)N[C@@H](Cc1ccccc1)C(=O)N[C@H](C(=O)N[C@H](CCC(=O)O)C(=O)N[C@@](C)(Cc1ccc(O)cc1)C(=O)N[C@@H](CC(C)C)C(=O)N[C@H](C(=O)N[C@@H](CCCCNC(=O)COCCOCCNC(=O)COCCOCCNC(=O)COCCOCCNC(=O)CC[C@H](NC(=O)CCCCCCCCCCCCC(=O)O)C(=O)O)C(=O)NCC(=O)NCC(=O)N1CCC[C@H]1C(=O)N[C@@H](CO)C(=O)N[C@@H](CO)C(=O)NCC(=O)N[C@@H](C)C(=O)N1CCC[C@H]1C(=O)N1CCC[C@H]1C(=O)N1CCC[C@H]1C(=O)N[C@@H](CO)C(=O)N[C@@H](CCCCNC(=O)COCCOCCNC(=O)COCCOCCNC(=O)COCCOCCNC(=O)CC[C@H](NC(=O)CCCCCCCCCCCCC(=O)O)C(=O)O)C(N)=O)[C@@H](C)CC)[C@@H](C)CC [Example 229] (H-Y[Aib]EGT[αMePhe(2-F)]TSD[4Pal]SI[αMeL]LD[Orn]IAQ[Aib]EFI[dE][αMeY]LIK([AEEA-AEEA-AEEA-γGlu-C14 diacid])GGPSSGAPPPSK([AEEA-AEEA-AEEA-γGlu-C14 diacid])-NH2)
Emax (hGIPR; [3]): 80.5% | EC50 (hGIPR; [1]): 0.0253 nM | EC50 (hGCGR; [2]): > 9950 nM | EC50 (hGCGR; [1]): > 9950 nM | Emax (hGLP-1R; HEK293, 0.1% bovine casein and 1.0% human serum albumin, 37° C., percent of maximal response to GLP-1(7-36)NH2): 99% | Emax (hGLP-1R; HEK293, percent of maximal response to GLP-1(7-36)NH2, 37° C., 0.1% bovine casein, arithmetic mean): 94.3% | EC50 (hGLP-1R; [1]): 2.25 nM
